Test results as given in patent US10435400B2, “2,4-disubstituted phenylene-1,5-diamine derivatives and applications thereof, and pharmaceutical compositions and pharmaceutically acceptable compositions prepared therefrom” (SHANGHAI HAIYAN PHARMACEUTICAL TECHNOLOGY CO., LTD., priority 2014, dated 2019).
Like-named read-outs stand apart in the source and are kept apart here.

Assays:
H1975 cells [1] = test: Cytostatic activity by MTT method, H1975 cells; type: cell-based; conditions: MTT; for IC50: 72 h, read-out: H1975 cells (IC50/nM); for selective inhibitory activity against the cell growth [IC50 (A431 cells)/IC50 (H1975 cells)]: ratio of IC50 values
Procedure: MTT assay used the method well known to those skilled in the art, and the reagents used in the method can be commercially obtained. […] After rinsed for one time, 1.5 ml trypsin/EDTA was added to digest the adherent cells until the cells detached, and then 3.5 ml of medium was added to terminate the trypsinization. The digested cell suspension was transferred to a 15 ml falcon tube, and spun at 1300 rpm for 3 min, the supernatant was discarded, and cells were suspended in fresh medium. […] The plates were spun at 2000 rpm for 5 min.

A431 cells [2] = test: Cytostatic activity by MTT method, A431 cells; conditions: read-out: A431 cells (IC50/nM);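 also: viability read by MTT reduction after compound exposure, with MTT incubated for a further 4 h at 37 °C under 5% CO2 in 96-well plates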
Procedure: (§1) After rinsed for one time, 1.5 ml trypsin/EDTA was added to digest the adherent cells until the cells detached, and then 3.5 ml of medium was added to terminate the trypsinization. The digested cell suspension was transferred to a 15 ml falcon tube, and spun at 1300 rpm for 3 min, the supernatant was discarded, and cells were suspended in fresh medium.
(§2) The cells were added into the incubator after addition of the test compound, and incubated for 72 h, 10 μl of 5 mg/ml MTT (Sigma, M5655) solution was added to each well of the plate, and incubated the 96-well plates at 37° C. 5% CO2 for 4 h in a incubator.
(§3) The plates were spun at 2000 rpm for 5 min.

EGFR WT kinase = EGFR WT kinase (Homo sapiens (Human), UniProt P00533); test: Wild type EGFR kinase inhibition test (z-lyte); type: biochemical; conditions: 10 μM ATP
Chain of EGFR WT kinase (P00533 25-1210): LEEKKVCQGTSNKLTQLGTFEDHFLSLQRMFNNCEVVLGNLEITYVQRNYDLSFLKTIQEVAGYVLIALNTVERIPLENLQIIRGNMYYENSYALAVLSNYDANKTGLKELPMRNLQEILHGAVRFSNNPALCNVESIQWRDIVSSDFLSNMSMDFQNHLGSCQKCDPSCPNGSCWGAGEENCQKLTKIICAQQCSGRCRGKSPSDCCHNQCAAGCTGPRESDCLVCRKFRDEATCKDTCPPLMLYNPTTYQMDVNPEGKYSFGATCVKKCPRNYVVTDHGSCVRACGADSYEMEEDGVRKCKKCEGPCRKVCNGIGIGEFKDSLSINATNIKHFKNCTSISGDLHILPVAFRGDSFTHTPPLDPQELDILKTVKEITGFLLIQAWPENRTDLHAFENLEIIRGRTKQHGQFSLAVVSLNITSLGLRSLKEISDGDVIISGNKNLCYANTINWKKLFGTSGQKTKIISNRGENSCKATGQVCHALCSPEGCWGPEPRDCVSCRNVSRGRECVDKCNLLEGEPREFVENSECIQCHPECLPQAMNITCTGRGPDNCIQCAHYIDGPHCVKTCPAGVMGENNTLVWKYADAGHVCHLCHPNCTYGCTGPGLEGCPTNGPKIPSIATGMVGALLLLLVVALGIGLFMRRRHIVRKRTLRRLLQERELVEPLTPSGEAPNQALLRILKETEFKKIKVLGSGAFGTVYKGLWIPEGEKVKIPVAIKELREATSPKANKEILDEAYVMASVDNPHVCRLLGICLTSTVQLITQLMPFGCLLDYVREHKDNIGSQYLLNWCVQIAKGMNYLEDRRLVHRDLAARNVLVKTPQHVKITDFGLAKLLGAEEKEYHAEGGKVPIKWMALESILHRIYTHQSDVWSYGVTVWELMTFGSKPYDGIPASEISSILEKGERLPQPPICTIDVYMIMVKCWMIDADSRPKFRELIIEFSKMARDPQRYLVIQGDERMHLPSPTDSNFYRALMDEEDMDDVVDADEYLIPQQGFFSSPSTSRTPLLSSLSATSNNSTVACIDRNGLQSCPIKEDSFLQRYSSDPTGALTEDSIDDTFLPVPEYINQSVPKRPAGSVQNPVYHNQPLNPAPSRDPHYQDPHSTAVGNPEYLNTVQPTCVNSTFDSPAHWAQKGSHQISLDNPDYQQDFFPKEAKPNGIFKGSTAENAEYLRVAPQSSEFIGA

H1975 cells [3] = test: ELISA screening EGFR T790M inhibitor for cell activity, H1975 cells; type: cell-based; conditions: ELISA; for Selective inhibitory activities of target on cellular level [IC50 (A431 cells)/IC50 (H1975 cells)]: ratio of IC50 values; for IC50: compound 1 h, read-out: H1975 cells (IC50/nM)
Procedure: (§4) The reagents, preparation methods of the solution, as well as the procedures of cell treatments and preparation of lysate, and the test steps of ELISA in the following method were conducted according to the instructions of R&D DYC3570, R&D DYC1095E and R&D DYC1095BE.
(§5) Cell lysates: cell lysis buffer+10 μg/ml Aprotinin (Sigma), 10 μg/ml Leupeptin (Sigma). All reagents were prepared when using.
(2) The test compounds were diluted according to the method in MTT assay, and 10 μl of diluted compound or DMSO was added to the corresponding plate well, and incubated at 37° C. with 5% CO2 for 1 h. The final concentration of DMSO was 0.5%. Cell culture system merely treated with DMSO was used as cell control.
(3) 100 μl cell lysate was added after aspirating the medium, sealed and placed in a refrigerator at −80° C. overnight. Cell lysis buffer used as blank control.
The assay was operated according to the instructions of R&D DYC1095E or R&D DYC1095BE.
(§6) (5) 40 μl of cell lysis buffer and 60 μl of cell lysates were added, and incubated at 25° C. for 2 h under shaking;
(7) Detection antibody was diluted according to a predetermined ratio as stipulated in kit instructions by using IC diluent, and 100 μl of the diluted Detection Antibody was added to each well, and incubated at 25° C. for 1 h under shaking in darkness;
(9) reagent A and reagent B of TMB substrate (R & D DY999) were mixed with 1:1, and 100 μl of substrate was added to each well, and incubated at 25° C. for 20 minutes under shaking in darkness;
(11) The OD450 values and OD570 values of the cell control, blank control and compound treatment were measured respectively by using microplate reader (Thermo Multiskan K3), and the corresponding OD570 values were subtracted from OD450 values of the same wells to get the ODcell, ODblank and ODcompound treatment respectively.
2.3 Data Analysis Inhibition ratio (%)=100%×(ODcell−ODcompound treatment)(ODcell−ODblank)

A431 cells [4] = test: ELISA cell activity, EGF-stimulated A431 cells; type: cell-based; conditions: ELISA, compound 1 h then EGF 45 minutes, read-out: A431 cells (IC50/nM);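 also: Serum-starved A431 cells pretreated with compound for 1 h, then stimulated with EGF for 45 min, lysates read by ELISA (OD450 minus OD570), EGF-only wells as control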
Procedure: as §4, §5
(2) The medium of A431 cells was changed to 90 ul of DMEM FBS free medium, and incubated overnight.
(3) The test compounds were diluted according to the method in MTT assay, 10 μl of diluted compound or DMSO was added to the corresponding plate well, and incubated at 37° C. with 5% CO2 for 1 h. The final concentration of DMSO was 0.5%. 10 μl of 2 μg/L EGF was then added to each well except the cell control well, 10 μl of FBS free DMEM was added to the well, and incubated for 45 minutes; the EGF-free and compound treatment-free cells were used as cell control, and the compound treatment-free but only EGF-treated cells were used as EGF control.
(4) 100 μl cell lysate was added after aspirating the medium, sealed and placed in refrigerator at −80° C. overnight.
The assay was operated according to the instructions of R&D DYC3570E.
as §6
(7) Detection antibody was diluted according to a predetermined ratio of kit instruction by using IC dilution, and 100 μl of the diluted Detection Antibody was added to each well, and incubated at 25° C. for 1 h under shaking in darkness;
(9) reagent A and reagent B of TMB substrate (R & D DY999) were mixed at 1:1, 100 μl of substrate was added to each well, and incubated at 25° C. for 20 minutes under shaking in darkness;
(11) The OD450 values and OD570 values of the cell control, blank control and compound treatment were measured respectively by using microplate reader (Thermo Multiskan K3), and the corresponding OD570 values were subtracted from OD450 values of the same wells to get the ODEGF, ODcompound and ODcell respectively.

NIH3T3 cells = test: Cytotoxicity by MTT method, NIH3T3 cells; type: cell-based; conditions: cytotoxicity, MTT, 72 h, read-out: NIH3T3 cells MTT assay (IC50/nM);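 also: cells grown in 96-well plates with compound for 72 h, then given MTT for a further 4 h at 37 °C under 5% CO2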
Procedure: as §1, §2, §3

| Structure (SMILES) | IC50 (H1975 cells [1]; Homo sapiens, NCI-H1975) [nM] | selective inhibitory activity against the cell growth [IC50 (A431 cells)/IC50 (H1975 cells)] (H1975 cells [1]) | IC50 (A431 cells [2]; Homo sapiens, A-431, 72 h) [nM] | IC50 (EGFR WT kinase) [nM] | Selective inhibitory activities of target on cellular level [IC50 (A431 cells)/IC50 (H1975 cells)] (H1975 cells [3]) | IC50 (H1975 cells [3]; Homo sapiens, NCI-H1975) [nM] | IC50 (A431 cells [4]; Homo sapiens, A-431) [nM] | IC50 (NIH3T3 cells; Mus musculus, NIH3T3) [nM] | IC50 (H1975 cells [1]) [nM] | IC50 (A431 cells [2]; MTT, 72 h) [nM] | IC50 (H1975 cells [3]) [nM] | IC50 (A431 cells [4]) [nM] | IC50 (NIH3T3 cells) [nM] |
| --- | --- | --- | --- | --- | --- | --- | --- | --- | --- | --- | --- | --- | --- |
| C=CC(=O)Nc1cc(Nc2nccc(-c3cnc4c(cnn4C)c3)n2)c(OC)cc1N(C)CCN(C)C [Compound Z-6, N-(2-((2-(dimethylamino)ethyl)(methyl)amino)-4-methoxy-5-(4-(1-methyl-1H-pyrazolo[3,4-b]pyridin-5-yl)pyrimidin-2-ylamino)phenyl)acrylamide] | 17 | 45.5 | 773 | 10 | 5.7 | 34 | 194 | – | – | – | – | – | – |
| C=CC(=O)Nc1cc(Nc2nccc(-c3cnc4c(ccn4C)c3)n2)c(OC)cc1N(C)CCN(C)C [Compound Z-16, N-(2-((2-(dimethylamino)ethyl)(methyl)amino)-4-methoxy-5-((4-(1-methyl-1H-pyrrolo[2,3-b]pyridin-5-yl)pyrimidin-2-yl)amino)phenyl)acrylamide] | 9 | 97 | 871 | 4 | 15.3 | 10 | 153 | > 10000 | – | – | – | – | – |
| C=CC(=O)Nc1cc(Nc2ncc(Cl)c(-c3cnn(C)c3)n2)c(OC)cc1N(C)CCN(C)C [Compound Z-19, N-(5-((5-chloro-4-(1-methyl-1H-pyrazol-4-yl)pyrimidin-2-yl)amino)-2-((2-(dimethylamino)ethyl)(methyl)amino)-4-methoxyphenyl)acrylamide] | 22 | – | 757 | – | – | 21 | 675 | 4510 | – | – | – | – | – |
| C=CC(=O)Nc1cc(Nc2ncc(C(F)(F)F)c(-c3cnc4c(ccn4C)c3)n2)c(OC)cc1N(C)CCN(C)C [Compound Z-22, N-(2-((2-(dimethylamino)ethyl)(methyl)amino)-4-methoxy-5-((4-(1-methyl-1H-pyrrolo[2,3-b]pyridin-5-yl)-5-(trifluoromethyl)pyrimidin-2-yl)amino)phenyl)acrylamide] | 29 | 65.5 | 1900 | 57 | 53.6 | 23 | 1230 | – | – | – | – | – | – |
| C=CC(=O)Nc1cc(Nc2nccc(-c3cnc4c(ccn4C)c3)n2)c(OC)cc1N1CC(N(C)C)C1 [Compound Z-27] | – | 50.1 | – | 19 | 21.7 | – | – | – | 49 | 2480 | 44 | 955 | 7960 |
| C=CC(=O)Nc1cc(Nc2nccc(-c3cnc4[nH]ccc4c3)n2)c(OC)cc1N(C)CCN(C)C [Compound Z-30] | – | 44.4 | – | – | – | – | – | – | 25 | 1110 | – | – | 5790 |
| C=CC(=O)Nc1cc(Nc2ncc(Cl)c(-c3cnc4c(cnn4C)c3)n2)c(OC)cc1N(C)CCN(C)C [Compound Z-39] | – | 57.4 | – | 33 | 16.1 | – | – | – | 16 | 918 | 41 | 660 | 8890 |
| C=CC(=O)Nc1cc(Nc2ncc(OC)c(-c3cnc4c(cnn4C)c3)n2)c(OC)cc1N(C)CCN(C)C [Compound Z-44] | – | 56.7 | – | 30 | – | – | – | – | 32 | 1810 | – | – | 8880 |
| C=CC(=O)Nc1cc(Nc2ncc(Cl)c(-c3cnn(C)c3C)n2)c(OC)cc1N(C)CCN(C)C [Compound Z-55] | – | – | – | 21 | – | – | – | – | – | 660 | 15 | 200 | 5420 |
| C=CC(=O)Nc1cc(Nc2ncc(Cl)c(-c3c(C)nn(C)c3C)n2)c(OC)cc1N(C)CCN(C)C [Compound Z-91, N-(5-(5-chloro-4-(1,3,5-trimethyl-1H-pyrazol-4-yl)pyrimidin-2-ylamino)-2-((2-(dimethylamino)ethyl)(methyl)amino)-4-methoxyphenyl)acrylamide] | 36 | 100.3 | 3610 | 195 | 36.4 | 90 | 3280 | > 10000 | – | – | – | – | – |
| C=CC(=O)Nc1cc(Nc2ncc(Cl)c(-c3cn(C)nc3C)n2)c(OC)cc1N(C)CCN(C)C [Compound Z-94, N-(5-(5-chloro-4-(1,3-dimethyl-1H-pyrazol-4-yl)pyrimidin-2-ylamino)-2-((2-(dimethylamino)ethyl)(methyl)amino)-4-methoxyphenyl)acrylamide] | 8 | 80.6 | 645 | 20 | 23.3 | 16 | 372 | > 10000 | – | – | – | – | – |
| C=CC(=O)Nc1cc(Nc2ncc(Cl)c(-c3ccn(C)c3)n2)c(OC)cc1N1CCC(N(C)C)CC1 [Compound Z-98, N-(5-(5-chloro-4-(1-methyl-1H-pyrrol-3-yl)pyrimidin-2-ylamino)-2-(4-(dimethylamino)piperidin-1-yl)-4-methoxyphenyl)acrylamide] | 108 | 15.2 | 1640 | 407 | – | – | – | 4360 | – | – | – | – | – |
| C=CC(=O)Nc1cc(Nc2ncc(Cl)c(-c3cn[nH]c3)n2)c(OC)cc1N1CCC(N(C)C)CC1 [Compound Z-102, N-(5-(5-chloro-4-(1H-pyrazol-4-yl)pyrimidin-2-ylamino)-2-(4-(dimethylamino)piperidin-1-yl)-4-methoxyphenyl)acrylamide] | 15 | – | 597 | – | – | 11 | 1020 | – | – | – | – | – | – |
| C=CC(=O)Nc1cc(Nc2nccc(-c3cnc4c(ccn4C)c3)n2)c(OC)cc1N(C)CCNC [Compound Z-106] | – | 52.7 | – | 4 | 16.1 | – | – | – | 13 | 685 | 12 | 193 | – |
| C=CC(=O)Nc1cc(Nc2nccc(-c3cnc4c(ccn4C)c3)n2)c(OC)cc1N(C)CCN(CC)CC [Compound Z-107] | – | 38.2 | – | 16 | 15.5 | – | – | – | 37 | 1410 | 55 | 855 | – |
| C=CC(=O)Nc1cc(Nc2nccc(-c3cnc4c(ccn4C)c3)n2)c(OC)cc1N(C)CCCN(C)C [Compound Z-108] | – | 37.7 | – | – | – | – | – | – | 77 | 2900 | – | – | 3620 |
| C=CC(=O)Nc1cc(Nc2nccc(-c3cnc4c(ccn4C)c3)n2)c(OC)cc1N(C)CCN1CCCC1 [Compound Z-112] | – | – | – | 22 | 6.3 | – | – | – | – | – | 77 | 486 | > 10000 |
| C=CC(=O)Nc1cc(Nc2ncc(Cl)c(-c3cnc4c(ccn4C)c3)n2)c(OC)cc1N1CC(N(C)C)C1 [Compound Z-113] | – | – | – | 121 | 22.8 | – | – | – | – | – | 99 | 2250 | 5320 |
| C=CC(=O)Nc1cc(Nc2ncc(F)c(-c3cnc4c(c3)c(Cl)cn4C)n2)c(OC)cc1N(C)CCN(C)C [Compound Z-123] | – | 40.2 | – | 3 | – | – | – | – | 26 | 1040 | – | – | 4740 |
| C=CC(=O)Nc1cc(Nc2nccc(-c3cnc4c(ccn4C(C)C)c3)n2)c(OC)cc1N(C)CCN(C)C [Compound Z-124] | – | 46.8 | – | 13 | – | – | – | – | 38 | 1780 | – | – | 3240 |
| C=CC(=O)Nc1cc(Nc2nccc(-c3cccnc3)n2)c(OC)cc1N1CCC(N(C)C)CC1 [compound 2, reference compound] | 277 | 24 | 6660 | – | 0.83 | 241 | 199 | – | – | – | – | – | – |
| C=CC(=O)Nc1cc(Nc2ncc(OC)c(-c3cnc4ccccc4c3)n2)c(OC)cc1N1CCC(N(C)C)CC1 [compound 3, reference compound] | 437 | 6.8 | 2970 | – | 2.7 | 1140 | 3110 | – | – | – | – | – | – |
